Assay results published in US20190249218A1, “Method, Medium and Kit for Detecting Multiple Aminoglycoside Resistance Including 16S rRNA Methylase Mediated Resistance in Gram-Negative Bacteria” (priority 2016, published 2019).
≈ marks a conversion by molar mass, not a printed value. Like-named read-outs stand apart in the source and are kept apart here.

Columns and labels:
P. mirabilis = assay: MIC by broth microdilution; assay type: cell-based, Proteus mirabilis
Method: (§1) MICs of amikacin and gentamicin were determined using the broth microdilution method in cation-adjusted Mueller-Hinton broth, as recommended by the Clinical Laboratory Standard Institute (CLSI) guidelines (8). Amikacin and gentamicin sulfate (Fluorochem, Dertbyshire, UK) were tested over a range of dilutions from 0.25 to 256 μg/ml. A final inoculum of 5.10^5 CFU/ml of each strain was distributed in the 96 wells tray (Sarstedt, Ntimbrecht, Germany). All experiments were repeated in triplicate and E. coli ATCC 25922 was used as quality control. According to the CLSI breakpoints (9), Enterobacteriaceae isolates with gentamicin MICs≤4 and amikacin MICs≤16 mg/L were categorized as susceptible, while those with gentamicin MICs≥16 and amikacin MICs≥64 mg/L were categorized as resistant.
(§2) MICs of amikacin and gentamicin were determined as described above in Example 1.

P. rettgeri = assay: MIC by broth microdilution; assay type: cell-based, Providencia rettgeri; settings: AAC(2′)
Method: as §1, §2

[1] = isolate R2260, P. mirabilis, AG susceptible

Compound	MIC (P. mirabilis; Proteus mirabilis, isolate R2260, P. mirabilis, AG susceptible, read-out: MIC) [µg/mL]	MIC (P. mirabilis; Proteus mirabilis, strain R263, P. mirabilis, armA, read-out: MIC) [µg/mL]	MIC (P. mirabilis; Proteus mirabilis, strain R2260, P. mirabilis, susceptible, read-out: MIC) [µg/mL]	Amikacin Phenotype (P. mirabilis; [1])	MIC (P. rettgeri; Providencia rettgeri, isolate 531, P. rettgeri, read-out: MIC) [µg/mL]	Amikacin Phenotype (P. rettgeri; isolate 531, P. rettgeri)	MIC (P. rettgeri; strain 531, P. rettgeri) [µg/mL]	Gentamicin Phenotype (P. mirabilis; [1])	MIC (P. mirabilis; [1]) [µg/mL]	MIC (P. mirabilis; strain R263, P. mirabilis, armA) [µg/mL]	MIC (P. mirabilis; strain R2260, P. mirabilis, susceptible) [µg/mL]	Gentamicin Phenotype (P. rettgeri; isolate 531, P. rettgeri)	MIC (P. rettgeri; isolate 531, P. rettgeri) [µg/mL]
NCC[C@H](O)C(=O)N[C@@H]1C[C@H](N)[C@@H](O[C@H]2O[C@H](CN)[C@@H](O)[C@H](O)[C@H]2O)[C@H](O)[C@H]1O[C@H]1O[C@H](CO)[C@@H](O)[C@H](N)[C@H]1O [Amikacin]	4 (≈ 6.83 µM)	> 512	4 (≈ 6.83 µM)	S (amikacin MICs≤16 mg/L were categorized as susceptible)	16 (≈ 27.3 µM)	S (amikacin MICs≤16 mg/L were categorized as susceptible)	16 (≈ 27.3 µM)	–	–	–	–	–	–
Gentamicin	–	–	–	–	–	–	4	S (gentamicin MICs≤4)	4	>256	4	S (gentamicin MICs≤4)	4
